Patent EP4635500A1, “THERAPEUTIC AGENT FOR BACTERIAL INFECTION” (Sumitomo Pharma Co., Ltd., priority 2022, dated 2024)
Converted amounts (≈) assume the structure as drawn. Read-outs that look alike come from different tables or passages of the source.

Test system: P. aeruginosa
Assay: MIC, broth microdilution, CDC/FDA Antibiotic Resistance Isolate Bank (Example 7, Tables 10, 15)
Format: cell-based
Conditions: Pseudomonas aeruginosa, read-out: MIC

C[C@H]1COc2c(N3CCN(C)CC3)c(F)cc3c(=O)c(C(=O)O)cn1c23 [Levofloxacin, levofloxacin]
MIC (P. aeruginosa KUB No. 5677, AR Bank # 244): 64 µg/mL (≈ 177 µM) | MIC (P. aeruginosa KUB No. 5678, AR Bank # 245): > 64 µg/mL | MIC (P. aeruginosa KUB No. 5679, AR Bank # 246): 32 µg/mL (≈ 88.6 µM) | MIC (P. aeruginosa KUB No. 5680, AR Bank # 247): 1 µg/mL (≈ 2.77 µM) | MIC (P. aeruginosa KUB No. 5681, AR Bank # 248): 16 µg/mL (≈ 44.3 µM) | MIC (P. aeruginosa KUB No. 5682, AR Bank # 249): 64 µg/mL (≈ 177 µM) | MIC (P. aeruginosa KUB No. 5684, AR Bank # 251): 8 µg/mL (≈ 22.1 µM) | MIC (P. aeruginosa KUB No. 5685, AR Bank # 252): 16 µg/mL (≈ 44.3 µM) | MIC (P. aeruginosa KUB No. 5686, AR Bank # 253): 1 µg/mL (≈ 2.77 µM) | MIC (P. aeruginosa KUB No. 5687, AR Bank # 254): 16 µg/mL (≈ 44.3 µM) | MIC (P. aeruginosa KUB No. 5688, AR Bank # 255): 32 µg/mL (≈ 88.6 µM) | MIC (P. aeruginosa KUB No. 5689, AR Bank # 256): 0.5 µg/mL (≈ 1.38 µM) | MIC (P. aeruginosa KUB No. 5690, AR Bank # 257): 64 µg/mL (≈ 177 µM) | MIC (P. aeruginosa KUB No. 5691, AR Bank # 258): 0.5 µg/mL (≈ 1.38 µM) | MIC (P. aeruginosa KUB No. 5692, AR Bank # 259): 0.5 µg/mL (≈ 1.38 µM) | MIC (P. aeruginosa KUB No. 5693, AR Bank # 260): 32 µg/mL (≈ 88.6 µM) | MIC (P. aeruginosa KUB No. 5694, AR Bank # 261): 4 µg/mL (≈ 11.1 µM) | MIC (P. aeruginosa KUB No. 5695, AR Bank # 262): 2 µg/mL (≈ 5.53 µM) | MIC (P. aeruginosa KUB No. 5696, AR Bank # 263): 2 µg/mL (≈ 5.53 µM) | MIC (P. aeruginosa KUB No. 5697, AR Bank # 264): 32 µg/mL (≈ 88.6 µM) | MIC (P. aeruginosa KUB No. 5698, AR Bank # 265): 64 µg/mL (≈ 177 µM) | MIC (P. aeruginosa KUB No. 5699, AR Bank # 266): 32 µg/mL (≈ 88.6 µM) | MIC (P. aeruginosa KUB No. 5700, AR Bank # 267): 32 µg/mL (≈ 88.6 µM) | MIC (P. aeruginosa KUB No. 5701, AR Bank # 268): 8 µg/mL (≈ 22.1 µM) | MIC (P. aeruginosa KUB No. 5702, AR Bank # 269): 32 µg/mL (≈ 88.6 µM) | MIC (P. aeruginosa KUB No. 5703, AR Bank # 270): 32 µg/mL (≈ 88.6 µM) | MIC (P. aeruginosa KUB No. 5704, AR Bank # 271): 32 µg/mL (≈ 88.6 µM) | MIC (P. aeruginosa KUB No. 5705, AR Bank # 272): 8 µg/mL (≈ 22.1 µM) | MIC (P. aeruginosa KUB No. 5747, AR Bank # 351): 8 µg/mL (≈ 22.1 µM) | MIC (P. aeruginosa KUB No. 5748, AR Bank # 352): 32 µg/mL (≈ 88.6 µM) | MIC (P. aeruginosa KUB No. 5749, AR Bank # 353): 32 µg/mL (≈ 88.6 µM) | MIC (P. aeruginosa KUB No. 5750, AR Bank # 354): 8 µg/mL (≈ 22.1 µM) | MIC (P. aeruginosa KUB No. 5751, AR Bank # 355): 32 µg/mL (≈ 88.6 µM) | MIC (P. aeruginosa KUB No. 5752, AR Bank # 356): 0.5 µg/mL (≈ 1.38 µM) | MIC (P. aeruginosa KUB No. 5753, AR Bank # 357): 32 µg/mL (≈ 88.6 µM) | MIC (P. aeruginosa KUB No. 5754, AR Bank # 358): 8 µg/mL (≈ 22.1 µM) | MIC (P. aeruginosa KUB No. 5755, AR Bank # 359): 8 µg/mL (≈ 22.1 µM) | MIC (P. aeruginosa KUB No. 5756, AR Bank # 360): 1 µg/mL (≈ 2.77 µM) | MIC (P. aeruginosa KUB No. 5785, AR Bank # 439): 32 µg/mL (≈ 88.6 µM) | MIC (P. aeruginosa KUB No. 5786, AR Bank # 440): 32 µg/mL (≈ 88.6 µM) | MIC (P. aeruginosa KUB No. 5787, AR Bank # 441): 0.5 µg/mL (≈ 1.38 µM) | MIC (P. aeruginosa KUB No. 5788, AR Bank # 443): 64 µg/mL (≈ 177 µM) | MIC (P. aeruginosa KUB No. 5789, AR Bank # 444): 32 µg/mL (≈ 88.6 µM) | MIC (P. aeruginosa KUB No. 5790, AR Bank # 445): 32 µg/mL (≈ 88.6 µM) | MIC (P. aeruginosa KUB No. 5793, AR Bank # 449): 32 µg/mL (≈ 88.6 µM) | MIC (P. aeruginosa KUB No. 5798, AR Bank # 455): 4 µg/mL (≈ 11.1 µM) | MIC (P. aeruginosa KUB No. 5799, AR Bank # 456): > 64 µg/mL | MIC (P. aeruginosa KUB No. 5800, AR Bank # 457): 64 µg/mL (≈ 177 µM) | MIC (P. aeruginosa KUB No. 5801, AR Bank # 458): 2 µg/mL (≈ 5.53 µM) | MIC (P. aeruginosa KUB No. 5802, AR Bank # 459): 8 µg/mL (≈ 22.1 µM) | MIC (P. aeruginosa KUB No. 5804, AR Bank # 862): 4 µg/mL (≈ 11.1 µM) | MIC (P. aeruginosa KUB No. 5805, AR Bank # 863): 64 µg/mL (≈ 177 µM) | MIC (P. aeruginosa KUB No. 5806, AR Bank # 864): > 64 µg/mL | MIC (P. aeruginosa KUB No. 5813, AR Bank # 508): 0.008 µg/mL (≈ 0.0221 µM) | MIC (P. aeruginosa KUB No. 5814, AR Bank # 509): 0.032 µg/mL (≈ 0.0886 µM) | MIC (P. aeruginosa KUB No. 5815, AR Bank # 510): 0.008 µg/mL (≈ 0.0221 µM) | MIC (P. aeruginosa KUB No. 5816, AR Bank # 511): 0.001 µg/mL (≈ 0.00277 µM) | MIC (P. aeruginosa KUB No. 5817, AR Bank # 512): 0.004 µg/mL (≈ 0.0111 µM) | MIC (P. aeruginosa KUB No. 5818, AR Bank # 513): > 0.064 µg/mL | MIC (P. aeruginosa KUB No. 5819, AR Bank # 514): 0.001 µg/mL (≈ 0.00277 µM) | MIC (P. aeruginosa KUB No. 5820, AR Bank # 515): > 0.064 µg/mL | MIC (P. aeruginosa KUB No. 5821, AR Bank # 516): 0.001 µg/mL (≈ 0.00277 µM) | MIC (P. aeruginosa KUB No. 5823, AR Bank # 518): 0.064 µg/mL (≈ 0.177 µM) | MIC (P. aeruginosa KUB No. 5831, AR Bank # 526): 0.032 µg/mL (≈ 0.0886 µM) | MIC (P. aeruginosa KUB No. 5832, AR Bank # 527): 0.032 µg/mL (≈ 0.0886 µM) | MIC (P. aeruginosa KUB No. 5833, AR Bank # 528): 0.032 µg/mL (≈ 0.0886 µM) | MIC (P. aeruginosa KUB No. 5834, AR Bank # 529): 0.016 µg/mL (≈ 0.0443 µM)
